Test results reported in US4689333A, “2-(2-pyridylmethylthio (sulfinyl)) benzimidazoles” (Takeda Chemical Industries, Ltd., priority 1984, dated 1987).

Assay: Toxicity, oral administration to mice
Assay type: in vivo
Settings: even in a dose of 2000 mg/kg

Structure (SMILES)	fatal effect on oral administration
Cc1c(OCC(F)(F)C(F)(F)F)ccnc1C[S+]([O-])c1nc2ccccc2[nH]1 (centres unmarked) [2-[3-methyl-4-(2,2,3,3,3-pentafluoropropoxy)pyrid-2-yl]methylsulfinylbenzimidazole]	no fatal effect

Assay: Anti-ulcer action: indomethacin-induced gastric antral ulcer in rats
Assay type: in vivo, Male Sprague-Dawley rats
Settings: Rattus norvegicus, po, 5 h, p.o., 30 min before indomethacin 30 mg/kg s.c., 6 rats per group, doses 1, 3, 10 and 30 mg/kg, read-out: Anti-ulcer action ID50
From the text: As the models of gastrointestinal ulcers, restraint and water-immersion stress-induced ulcer, indomethacin-induced ulcer and ethanol-induced gastric mucosal lesions have been used. However, as a model mimicking human gastric ulcer, indomethacin-induced gastric antral ulcer was reported in "Gastroenterology" (Satoh et al. 81, p. 719, 1981), which is considered to be of value as an experimental model. Therefore, the following are data of anti-ulcer actions of the object compounds (I) and of some representable known compounds, on the ulcer model in the above-mentioned literature reference.
Male Sprague-Dawley rats of 7-weeks old were fasted for 24 hours. These animals were administered test compounds into stomach by using a gastric tube. After 30 minutes, indomethacin, 30 mg/kg subcutaneously, was administered. During 30-90 minutes after the administration of indomethacin, these animals had free access to chow pellets (Japan Clea, CE-2). At 5 hours after the administration of indomethacin, 1 ml of 1% Evans blue was injected to the animals via the tail vein, followed by sacrificing these animals with carbon dioxide gas. The stomach was removed together with the lower part of esophagus and the duodenum. The esophagus was clipped, 10 ml of 1% formalin solution was instilled into the stomach from the duodenum, and then the duodenum was clipped. The whole stomach was immersed in 1% formalin solution. About 15 minutes later, the stomachs were opened along the greater curvature. The area of the lesions which occurred in the gastric antral mucosa was measured under a dissecting microscope with a square-grid eye piece (x10). The sum total of the individual lesions in each animal was measured, and the average value per group was calculated. Based on the difference between the average value of each group and that of the control group, the inhibition rate was determined. The test compound and indomethahacin were suspended in a 5% gum arabic solution, respectively and administered in a volume of 2 ml/kg.
^(a) Using 6 rats per group, each of the test compounds was
administered in a dose of 1, 3, 10 and 30 mg/kg to determine ID50.

Structure (SMILES)	ED50
Cc1c(OCC(F)(F)C(F)F)ccnc1C[S+]([O-])c1nc2ccccc2[nH]1 (centres unmarked)	< 1 mg/kg
[O-][S+](Cc1cc(OCC(F)(F)C(F)F)ccn1)c1nc2ccccc2[nH]1 (centres unmarked)	1.3 mg/kg
[O-][S+](Cc1cc(OCC(F)(F)C(F)(F)F)ccn1)c1nc2ccccc2[nH]1 (centres unmarked)	1.3 mg/kg
Cc1c(OCC(F)(F)C(F)(F)F)ccnc1CSc1nc2ccccc2[nH]1 [2-[3-methyl-4-(2,2,3,3,3-pentafluoropropoxy)-pyrid-2-yl]methylthiobenzimidazole]	3.7 mg/kg
Cc1c(OCC(F)(F)C(F)(F)F)ccnc1C[S+]([O-])c1nc2ccccc2[nH]1 (centres unmarked) [2-[3-methyl-4-(2,2,3,3,3-pentafluoropropoxy)pyrid-2-yl]methylsulfinylbenzimidazole]	< 1 mg/kg
Cc1c(OCC(F)(F)F)ccnc1C[S+]([O-])c1nc2ccccc2[nH]1 (centres unmarked) [R^1=H, R^2=CH3, R^3=H, R^4=CH2 CF3, n=1, 2-[3methyl-4-(2,2,2-trifluoroethoxy)-pyrid-2-yl]methylsulfinylbenzimidazo]	< 1 mg/kg
[O-][S+](Cc1cc(OCC(F)(F)F)ccn1)c1nc2ccccc2[nH]1 (centres unmarked) [R^1=H, R^2=H, R^3=H, R^4=CH2 CF3, n=1]	2.4 mg/kg
